Measurements reported in patent US5888763A, “Peptides specific for the first Crk-SH3 domain” (The Rockefeller University, priority 1994, dated 1999).
Read-outs that look alike come from different tables or passages of the source. Where a SMILES comes first, the peptide text is derived from it. Where no end group is shown, it is not given here.

Key:
v-Crk = target: T1, v-Crk (Avian sarcoma virus CT10, UniProt P05433); assay: Tryptophan fluorescence titration of peptides with gst-v-Crk; type: binding; conditions: Table 3; fluorescence measurements
T1 construct: made in house; host or cells: bacteria
T1 sequence (P05433 whole entry): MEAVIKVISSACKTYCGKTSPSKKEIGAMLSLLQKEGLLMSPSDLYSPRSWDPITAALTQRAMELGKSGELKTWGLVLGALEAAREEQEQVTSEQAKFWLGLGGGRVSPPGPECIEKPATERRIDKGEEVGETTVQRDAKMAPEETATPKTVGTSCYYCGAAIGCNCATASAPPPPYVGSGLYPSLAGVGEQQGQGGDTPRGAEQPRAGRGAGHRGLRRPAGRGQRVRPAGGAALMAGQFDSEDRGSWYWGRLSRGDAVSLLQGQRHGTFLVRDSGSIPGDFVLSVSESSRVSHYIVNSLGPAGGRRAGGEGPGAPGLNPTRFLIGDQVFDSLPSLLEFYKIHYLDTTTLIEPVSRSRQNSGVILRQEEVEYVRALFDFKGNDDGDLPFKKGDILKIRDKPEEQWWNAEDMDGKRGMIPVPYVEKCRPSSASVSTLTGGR
Source text: (§1) Fluorescence Measurements. The fluorescence measurements were based predominantly on the interactions of the peptides with the aromatic residues, predominantly Trp (Yu et al., 1994, Cell 76:933) in the CrkSH3 domain.
(§2) Measurements were made with a Perkin-Elmer 760-40 fluorescence spectrophotometer at a excitation wavelength of 290 nm (slitwidth 2 nm) and an emission wavelength of 345 nm (slitwidth 17 nm). A mini-magnetic stirrer, CUV-O-STIR model 333 (HELLMA, Long Island, N.Y.) was used to mix the solution in a 1 cm square quartz fluorescence cell. A circulating water bath was used to maintain the sample temperature at 18° C. To obtain the titration curves for calculations of the binding constants, peptides from a stock solution of 5 mg/ml in TBS, 0.05% Tween-20 were added in small increments to a 1 ml volume of 0.5 μM SH3 domain in PBS, 1 mM Dithiothreitol (DTT).
(§3) Calculation of the binding constant. Since the concentration of the SH3-domain containing protein was low, the experimental data were fitted to the following equation:
(§4) F=Fmax *[peptide]/(Kd +[peptide]) (1)
(§5) Non-linear regression curve fitting using SigmaPlot (Jandel Scientific, San Rafael, Calif.) was carried out to fit the experimental data to equation (1) with Fmax and Kd as fitted parameters.

c-CrkSH3(1) = target: T2, c-CrkSH3(1) (Mus musculus, UniProt Q64010); assay: Tryptophan fluorescence titration of peptides with gst-c-CrkSH3(1); type: binding, murine; conditions: fluorescence measurements
T2 construct: made in house; host or cells: bacteria
Source text: as §1, §2, §3, §4, §5

Grb2 SH3 domain = target: T3, Grb2 SH3 domain (Homo sapiens, UniProt P62993); assay: Tryptophan fluorescence titration of peptides with gst-Grb2; type: binding
T3 construct: made in house; host or cells: bacteria
T3 sequence (P62993 whole entry, the tested form may be a part): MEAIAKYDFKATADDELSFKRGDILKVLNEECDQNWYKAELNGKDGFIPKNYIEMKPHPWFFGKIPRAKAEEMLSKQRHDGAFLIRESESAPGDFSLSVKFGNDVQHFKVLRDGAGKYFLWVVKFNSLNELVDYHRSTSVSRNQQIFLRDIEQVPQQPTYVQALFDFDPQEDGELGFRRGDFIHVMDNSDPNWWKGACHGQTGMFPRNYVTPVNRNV

CRKL = target: T4, CRKL (Homo sapiens, UniProt P46109); assay: Tryptophan fluorescence titration of peptides with gst-CRKL; type: binding; conditions: Table 3; fluorescence measurements
T4 construct: made in house; host or cells: bacteria
T4 sequence (P46109 whole entry, species assumed): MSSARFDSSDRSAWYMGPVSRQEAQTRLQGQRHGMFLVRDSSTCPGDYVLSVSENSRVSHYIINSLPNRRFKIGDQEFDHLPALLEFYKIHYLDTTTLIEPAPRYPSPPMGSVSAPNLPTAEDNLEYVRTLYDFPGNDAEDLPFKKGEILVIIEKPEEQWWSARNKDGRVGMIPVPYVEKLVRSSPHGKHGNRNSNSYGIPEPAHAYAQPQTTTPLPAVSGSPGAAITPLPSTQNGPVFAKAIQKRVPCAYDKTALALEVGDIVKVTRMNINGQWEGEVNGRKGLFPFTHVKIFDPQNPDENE
Source text: as §1, §2, §3, §4, §5

gst-CrkSH3SH3 = assay: ELISA: biotinylated gst-CB fusion proteins binding to immobilized gst-CrkSH3SH3; conditions: wells coated with 100 ng/well gst-CrkSH3SH3, biotinylated gst-CB fusion protein, read-out: apparent Kd (half saturation point)
Sequence of gst-CrkSH3SH3 (Q64010 132-296 limits assumed): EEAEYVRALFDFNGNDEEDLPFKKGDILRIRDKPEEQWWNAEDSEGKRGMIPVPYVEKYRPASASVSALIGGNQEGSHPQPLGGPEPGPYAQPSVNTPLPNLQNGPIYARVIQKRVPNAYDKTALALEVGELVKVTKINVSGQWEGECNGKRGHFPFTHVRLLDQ
Experimental: ELISA. gst-CB-1 to -4 proteins were biotinylated with Sulfosuccinimidyl 6-(biotinamido) hexanoate (Pierce) according to the manufacturers instructions. ELISA plates (Nunc) were coated with 100 ng/well of gst-Grb2, gst-CrkSH3SH3 or gst in 0.1M NaHCO3, pH 9.6, over night at room temperature (Jones et al., 1991, Mol. Cell Biol. 11:2641). Wells were then blocked with 2% BSA. After washing three times with blocking buffer (20 mM Tris-HCl, pH 7.5, 100 mM NaCl, 0.05% Tween-20, 1 mM EDTA, 0.2% BSA and 0.1% Ovalbumin), biotinylated gst-CB fusion proteins were added at the concentrations indicated in FIG. 6. To measure bound gst-CB fusion proteins, wells were incubated with horseradish Peroxidase coupled streptavidin (Gibco). A chromogenic substrate, 2,2'-azinobis(3-ethylbenzothiazoline-6-sulfonic acid) diaminonium salt (ABTS, Pierce) was then added and the OD was measured at 405 nm after 5 and 15 min and the 5 min OD value subtracted from the 15 min OD value to yield DOD405. In each experiment, the DOD405 at saturation of SH3 domain binding sites was considered 100% . DOD405 values for all other points within the same experiment were expressed as a percentage of this 100% value. Binding to gst alone was subtracted at each data point.

[1] = target: T5, gst-c-CrkSH3(1) (Example 2) (murine, UniProt Q64010); assay: tryptophan fluorescence titration
gst-v-Crk = gst-v-Crk (Avian sarcoma virus CT10 (Avian sarcoma …, UniProt P05433)); assay: tryptophan fluorescence titration
[2] = target: T5, gst-c-CrkSH3(1) (Example 2); assay: filter binding of 35S-gst-CrkSH3(1) to blotted gst-fusion peptides
[3] = target: T5, gst-c-CrkSH3(1) (Example 2); assay: tryptophan fluorescence titration; remark: listed apart in the source
[4] = target: T5, gst-c-CrkSH3(1) (Example 2); assay: tryptophan fluorescence titration; remark: listed apart in the source
[5] = target: T5, gst-c-CrkSH3(1) (Example 2); assay: tryptophan fluorescence titration with gst-CrkSH3(1)
[6] = target: T5, gst-c-CrkSH3(1) (Example 2); assay: rounded value given in the summary of Example 3 for the peptide and Crk SH3-N; measured by fluorescence in Example 2
[7] = c-CrkSH3(1) Kd (μM), Table 2, gst-CrkSH3(1), 18° C
[8] = Table 2, gst-Grb2, fluorescence measurements, 18° C, read-out: Grb2SHD Kd

CC(C)C[C@H](NC(=O)[C@H](C)NC(=O)[C@@H]1CCCN1C(=O)[C@@H]1CCCN1C(=O)[C@@H]1CCCN1)C(=O)N1CCC[C@H]1C(=O)N1CCC[C@H]1C(=O)N[C@@H](C)C(=O)N[C@@H](CCCCN)C(=O)N[C@@H](CCCNC(=N)N)C(=O)O (H-PPPALPPAKR-OH)
Kd (v-Crk): 248 ± 10 µM

CC(C)C[C@H](NC(=O)[C@@H]1CCCN1C(=O)[C@@H]1CCCN1C(=O)[C@H](CC(C)C)NC(=O)[C@H](C)NC(=O)[C@@H]1CCCN1C(=O)[C@@H]1CCCN1C(=O)[C@@H]1CCCN1)C(=O)N[C@@H](CCCCN)C(=O)N[C@@H](CCCNC(=N)N)C(=O)O (H-PPPALPPLKR-OH)
Kd (c-CrkSH3(1); gst-c-CrkSH3(1) Kd (μM), Table 3): 379 ± 1 µM | Kd (v-Crk): 437 ± 6 µM

CC(C)C[C@H](NC(=O)[C@@H]1CCCN1C(=O)[C@@H]1CCCN1C(=O)[C@@H]1CCCN1C(=O)[C@@H]1CCCN1)C(=O)N1CCC[C@H]1C(=O)N1CCC[C@H]1C(=O)N[C@@H](CCCCN)C(=O)N[C@@H](CCCCN)C(=O)N[C@@H](CCCNC(=N)N)C(=O)O [C3Gmut(1)] (H-PPPPLPPKKR-OH)
Kd (Grb2 SH3 domain): 203 ± 3 µM

CC(C)C[C@H](NC(=O)[C@H](C)NC(=O)[C@@H]1CCCN1C(=O)[C@@H]1CCCN1C(=O)[C@@H]1CCCN1)C(=O)N1CCC[C@H]1C(=O)N1CCC[C@H]1C(=O)N[C@@H](CCCNC(=N)N)C(=O)N[C@@H](CCCCN)C(=O)N[C@@H](CCCNC(=N)N)C(=O)O [C3Gmut(2)] (H-PPPALPPRKR-OH)
Kd (c-CrkSH3(1); [7]): 17.2 ± 0.4 µM | Kd (Grb2 SH3 domain): 23.5 ± 0.8 µM | Kd (CRKL): 11.2 ± 0.5 µM

CC(C)C[C@H](NC(=O)[C@H](C)NC(=O)[C@@H]1CCCN1C(=O)[C@@H]1CCCN1C(=O)[C@@H]1CCCN1)C(=O)N1CCC[C@H]1C(=O)N1CCC[C@H]1C(=O)N[C@@H](CCCCN)C(=O)N[C@@H](CCCCN)C(=O)N[C@@H](CCCNC(=N)N)C(=O)O [CB-1 peptide]
Kd (c-CrkSH3(1); Kd for the CrkSH3(1) domain): 1.89 ± 0.06 µM | Kd (Grb2 SH3 domain): 142 ± 3 µM | Kd (CRKL): 2.79 ± 0.1 µM

CC(C)[C@H](NC(=O)[C@@H]1CCCN1C(=O)[C@@H]1CCCN1C(=O)[C@@H]1CCCN1)C(=O)N1CCC[C@H]1C(=O)N1CCC[C@H]1C(=O)N[C@@H](CCCNC(=N)N)C(=O)N[C@@H](CCCNC(=N)N)C(=O)N[C@@H](CCCNC(=N)N)C(=O)N[C@@H](CCCNC(=N)N)C(=O)O [SOS-1, reference compound]
Kd (c-CrkSH3(1); [7]): 5.24 ± 0.16 µM | Kd (Grb2 SH3 domain): 3.54 ± 0.16 µM | Kd (CRKL): 10.5 ± 0.8 µM

CC[C@H](C)[C@H](NC(=O)[C@H](C)NC(=O)[C@@H]1CCCN1C(=O)[C@@H]1CCCN1)C(=O)N1CCC[C@H]1C(=O)N1CCC[C@H]1C(=O)N[C@@H](CCCNC(=N)N)C(=O)N[C@@H](CCC(N)=O)C(=O)N1CCC[C@H]1C(=O)N[C@H](C(=O)O)[C@@H](C)O [SOS-2] (H-PPAIPPRQPT-OH)
Kd (Grb2 SH3 domain; [8]): 42 ± 4 µM

CC(C)C[C@H](NC(=O)[C@@H]1CCCN1C(=O)[C@@H]1CCCN1)C(=O)N[C@@H](CC(C)C)C(=O)N1CCC[C@H]1C(=O)N1CCC[C@H]1C(=O)N[C@@H](CCCNC(=N)N)C(=O)N[C@@H](CCC(=O)O)C(=O)N1CCC[C@H]1C(=O)N[C@H](C(=O)O)C(C)C [SOS-3, reference compound] (H-PPLLPPREPV-OH)
Kd (c-CrkSH3(1); [7]): 206 ± 9 µM | Kd (Grb2 SH3 domain): 88 ± 3 µM

CC(C)[C@H](NC(=O)[C@@H]1CCCN1C(=O)[C@@H]1CCCN1C(=O)CN)C(=O)N1CCC[C@H]1C(=O)N1CCC[C@H]1C(=O)N[C@@H](CCCNC(=N)N)C(=O)N[C@@H](CCC(N)=O)C(=O)N[C@@H](CO)C(=O)N[C@H](C(=O)O)[C@@H](C)O [SOS-4, reference compound] (H-GPPVPPRQST-OH)
Kd (c-CrkSH3(1); Table 2, gst-CrkSH3(1), 18° C, read-out: c-CrkSH3(1) Kd): 663 ± 3 µM | Kd (Grb2 SH3 domain; [8]): 94 ± 5 µM

gst-CB-1: gst-fusion protein containing only the single proline-rich sequence CB-1 of C3G (SPPPALPPKKRQ; also: fused to GST)
Kd (gst-CrkSH3SH3): 0.0104 µM

gst-CB-2: gst-fusion protein containing only the single proline-rich sequence CB-2 of C3G (DTPPALPEKKRR; also: fused to GST)
Kd (gst-CrkSH3SH3): 0.027 µM

gst-CB-3: gst-fusion protein containing only the single proline-rich sequence CB-3 of C3G (EKPPPLPEKKNK; also: fused to GST)
Kd (gst-CrkSH3SH3): 0.0113 µM

gst-CB-4: gst-fusion protein containing only the single proline-rich sequence CB-4 of C3G (APPPALPPKQRQ; also: fused to GST)
Kd (gst-CrkSH3SH3): 0.00285 µM

PPPALPPKKA [peptide PPPALPPKKA]
Kd [1]: 9.3 µM | Kd (gst-v-Crk): 71.8 µM

PPPALPPKK (other) [gst-3-11 (CB-1 gst-fusion peptide without the C-terminal Arg-12)]
binding result [2]: no binding

PPPALPPAKR [Lys-10Ala mutant peptide (PPPALPPAKR)]
fold decrease of binding against the wild type CB-1 peptide [3]: 10 fold | fold increase of Kd against the wild type CB-1 peptide [3]: 11.7 fold | fold reduction of binding affinity against the wild type CB-1 peptide [3]: 11.6 fold | Kd [1]: 22.1 µM

PPAIPPRQPT [SOS-2 peptide (PPAIPPRQPT)]
Kd [4]: 127 µM

PPPALPPKQR [CB-4 peptide]
binding result [5]: binds

TPPALPEKKR [CB-2 peptide]
binding result [5]: binds

PPPVPPRRRR [SOS-1 peptide (PPPVPPRRRR)]
Kd (gst-v-Crk): 23.7 µM

PPPALPPRKR [C3Gmut(2) peptide (PPPALPPRKR)]
fold decrease of binding against the wild type CB-1 peptide [3]: 10 fold | fold increase of Kd against the wild type CB-1 peptide [3]: ~9 fold | Kd (gst-v-Crk): 23.5 µM

KPPPLPEKKQ [CB-3 peptide]
binding result [5]: binds

NSPPPALPPKKR (other, not fully specified) [gst-1-12 (GST-NSPPPALPPKKR)]
binding result [2]: binds

PPPALPPKAR [peptide PPPALPPKAR]
Kd [1]: 5.74 µM

PPPALPPKKR [CB-1 peptide (PPPALPPKKR)]
Kd (gst-v-Crk): 25.5 µM | Kd [6]: ~2 µM

PPPPLPPKKR [C3Gmut(1) peptide (PPPPLPPKKR)]
Kd [4]: 1.45 µM

PPPALPPKKK [peptide PPPALPPKKK]
Kd [1]: 5 µM | Kd (gst-v-Crk): 36.2 µM
